These results are taken from patent publication US10604489B2, “Compounds for the treatment of pain” (priority 2018, dated 2020).

Like-named read-outs stand apart in the source and are kept apart here.

One data set has as its target μ-receptor (Homo sapiens (Human), UniProt P35372). Nature of the data set: Receptor binding, competitive displacement of [3H]DAMGO. To be noted: 0.25 nM [3H]DAMGO, CHO cell membrane protein, 60 min at 25° C. Put shortly:
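Ki derived via Cheng-Prusoff from IC50 (log-probit fit) of displacement of 0.25 nM [3H]DAMGO, 12 concentrations, from human μ-receptor in CHO cell membranes. Binding: 50 mM Tris-HCl pH 7.5, 25 °C, 60 min, 10 μM naloxone defining nonspecific, filter-bound radioactivity counted.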

Data set [1] has as its target T1, human μ opioid receptor (Homo sapiens (Human), UniProt P35372). Briefly: Functional activity ([35S]GTPγS binding). To be noted: [35S]GTPγS 0.080 nM, CHO cell membranes, 60 min at 30° C., filtration. In kind it is biochemical. In a few lines: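 Membranes from stably transfected CHO cells (7.5 μg) incubated with 12 test-compound concentrations and 0.080 nM [35S]GTPγS in 50 mM Tris-HCl pH 7.4, 3 mM MgCl2, 0.2 mM EGTA, 3 μM GDP, 100 mM NaCl, 60 min at 30° C. Nonspecific binding defined with 10 μM GTPγS; bound label collected by filtration and scintillation counting.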

The test system of data set [2] is Male Sprague-Dawley rats. Nature of the data set: animal or person. In kind it is in vivo, rat.
The test system of data set [3] is Male Sprague-Dawley rats. To be noted: rat; for <60 mmHg @ 100X CFA MEMD: dose 100× CFA MEMD.
Data set [4] concerns the target T1, human μ opioid receptor. Nature of the data set: Alternate functional activity ([35S]GTPγS binding) assay, SPA beads. In kind it is biochemical. To be noted: alternate assay: [35S]GTPγS 0.020 nM, CHO cell membranes with WGA PVT SPA beads. How it is done:
The [^35S]GTPγS assay measures the functional properties of a compound by quantifying the level of G-protein activation following agonist binding in studies using stably transfected cells, and is considered to be a measure of the efficacy of a compound. Membranes from CHO (Chinese Hamster Ovary) cells that stably expressed one type of the cloned human opioid receptor human were used in the experiments. The assay buffer consisted of 50 mM Tris-HCl, pH 7.4, 3 mM MgCl2, 0.2 mM EGTA, 5 μM GDP, and 100 mM NaCl. CHO cell membranes stably expressing the human p opioid receptor were pre-incubated with scintillation proximity assay beads from PerkinElmer® (WGA PVT SPA) for 30 minutes, at 8 µg membrane and […] beads in a volume of 0.1 mL per reaction. In a final volume of 0.2 mL, 11 different concentrations of each test compound were incubated with the membrane-SPA bead mixture and a final concentration of 0.020 nM [35S]GTPγS for 1.5 hours with gentle shaking. Reactions were then incubated for 5 hours. Data are the mean EC50 values ±S.E.M. EC50 values (nM) for compounds 12, 16, 19, 20, 149, 151, 152, 157, 160, 161, 164-169, 172, 173, 180-197, and 199-207 are shown in Table 1.

[5] abbreviates: sc, minimum dose at which maximal reversal of hind paw weight bearing (50±0.5%) was achieved, subcutaneous administration, rat, read-out: MEMD SC CFA.
Setting [6] is: maximum pCO2 within 2 hours of administration, dose 10× CFA MEMD, subcutaneous.
Setting [7] is: Rattus norvegicus, sc, read-out: MEMD SC CFA (mg/kg).
[8] abbreviates: maximum pCO2 within 2 hours of administration, subcutaneous.

Take `CO[C@@]1(c2ccnc(C(N)=O)c2)[C@@H]2CCC[C@H]1CN(Cc1ncc(C)[nH]1)C2.Cl` [Compound 153, 4-((1R,5S,9r)-9-methoxy-3-((5-methyl-1H-imidazol-2-yl)methyl)-3-azabicyclo[3.3.1]nonan-9-yl)picolinamide hydrochloride]: the inhibition constant (Ki) at μ-receptor is less than 1 nM. This compound gave an EC50 at human μ opioid receptor [1] of 10 to 75 nM. Moreover, in the data set on Male Sprague-Dawley rats [2] (minimum dose at which maximal reversal of hind paw weight bearing (50±0.5%) was achieved, subcutaneous administration, rat), the “MEMD SC CFA” value is recorded as 1 mg/kg.
For `COC1(c2cccc(C(N)=O)c2)C2CCCC1CN(CC1CCOCC1)C2.Cl` [Compound 122, 3-((1R,5S,9r)-9-methoxy-3-((tetrahydro-2H-pyran-4-yl)methyl)-3-azabicyclo[3.3.1]nonan-9-yl)benzamide hydrochloride], the Ki at μ-receptor is 1 to 5 nM. At human μ opioid receptor [1], this compound showed an EC50 of 10 to 75 nM. Besides, the minimal effective dose in the data set on Male Sprague-Dawley rats [2] (setting [5]) stood at 0.3 mg/kg. The “<60 mmHg @ 10X CFA MEMD” value in the data set on Male Sprague-Dawley rats [3] (setting [6]) is listed as “+ (resulted in a maximum pCO2 value of less than 60 mmHg within 2 hours of administration)”.
Take `COC1(c2ccnc(C(N)=O)c2)C2CCCC1CN(C[C@@H]1C[C@@H]3C[C@@H]3C1)C2.Cl` (stereo partly drawn) [Compound 104, 4-((1R,5S,9R)-3-((1R,3s,5S)-bicyclo[3.1.0]hexan-3-ylmethyl)-9-methoxy-3-azabicyclo[3.3.1]nonan-9-yl)picolinamide hydrochloride]: the Ki on μ-receptor was less than 1 nM. This compound also returned an EC50 on human μ opioid receptor [1] of 10 to 75 nM. Also, the minimal effective dose with Male Sprague-Dawley rats [2] (po, minimum dose at which maximal reversal of hind paw weight bearing was achieved, dosed orally, rat, read-out: MEMD SC CFA) is no more than 0.1 mg/kg.
In turn, `COC1(c2ccc(C(N)=O)s2)C2CCCC1CN(C)C2.Cl` [Compound 48, 5-((1R,5S,9r)-9-methoxy-3-methyl-3-azabicyclo[3.3.1]nonan-9-yl)thiophene-2-carboxamide hydrochloride] yielded a Ki at μ-receptor of less than 1 nM. The compound further yielded an EC50 on human μ opioid receptor [1] of 10 to 75 nM. In addition, the minimal effective dose in the data set on Male Sprague-Dawley rats [2] (setting [5]) worked out at 0.1 mg/kg.
`COC1(c2ccnc(C(N)=O)c2)C2CCCC1CN(Cc1c[nH]c3ccccc13)C2.Cl` [Compound 126, 4-((1R,5S,9r)-3-((1H-indol-3-yl)methyl)-9-methoxy-3-azabicyclo[3.3.1]nonan-9-yl)picolinamide hydrochloride] registered a Ki at μ-receptor of less than 1 nM. Besides, at human μ opioid receptor [1], the half-maximal effective concentration (EC50) was less than 10 nM. Moreover, in the data set with Male Sprague-Dawley rats [2] (setting [5]), the minimal effective dose turned out to be 0.1 mg/kg. Further, the “<60 mmHg @ 10X CFA MEMD” value in the data set with Male Sprague-Dawley rats [3] (setting [6]) was “− (resulted in a maximum pCO2 value of greater than 60 mmHg within 2 hours of administration)”.
In turn, `CCOC1(c2ccnc(C(N)=O)c2)C2CCCC1CNC2` (centres unmarked) [Compound 161] came in with an EC50 at human μ opioid receptor [4] of 10 to 75 nM. Also, in the data set on Male Sprague-Dawley rats [2] (setting [5]), the minimal effective dose is 0.3 mg/kg.
Turning to `COC1(c2cccc(C(N)=O)c2)C2CCCC1CN([C@H]1CCCOC1)C2.Cl` (single isomer, unassigned) [Compound 140], in the data set on Male Sprague-Dawley rats [2] (setting [5]), the minimal effective dose worked out at 0.1 mg/kg. For the same compound, the “<60 mmHg @ 10X CFA MEMD” value in the data set on Male Sprague-Dawley rats [3] (setting [6]) is given as “+ (resulted in a maximum pCO2 value of less than 60 mmHg within 2 hours of administration)”.
As to `CN1CC[C@]23c4c5ccc(O)c4O[C@H]2[C@@H](O)C=C[C@H]3[C@H]1C5` [Morphine, reference compound], the minimal effective dose in the data set on Male Sprague-Dawley rats [2] (setting [7]) worked out at 3 mg/kg. For the same compound, in the data set on Male Sprague-Dawley rats [3] (in vivo, sc), the “<60 mmHg @ 10X CFA MEMD” value is “− (key: −: resulted in a maximum pCO2 value of greater than 60 mmHg within 2 hours of administration; +: resulted in a maximum pCO2 value of less than 60 mmHg within 2 hours of administration)”.
On μ-receptor, `COC1(c2ccnc(C(N)=O)c2)C2CCCC1CN(CC1CC1)C2.Cl` [Compound 27, 4-((1R,5S,9r)-3-(cyclopropylmethyl)-9-methoxy-3-azabicyclo[3.3.1]nonan-9-yl)picolinamide hydrochloride] returned a Ki of 1 to 5 nM. The compound further yielded an EC50 on human μ opioid receptor [1] of 10 to 75 nM. Further, the minimal effective dose in the data set on Male Sprague-Dawley rats [2] (setting [5]) is 0.01 mg/kg. Also, the “<60 mmHg @ 100X CFA MEMD” value with Male Sprague-Dawley rats [3] (setting [8]) is on record as “+ (resulted in a maximum pCO2 value of less than 60 mmHg within 2 hours of administration)”.
Regarding `COC[C@H](C)N1CC2CCCC(C1)C2(OC)c1ccnc(C(N)=O)c1.Cl` (single isomer, unassigned) [Compound 61], in the data set with Male Sprague-Dawley rats [2] (setting [5]), the minimal effective dose was 0.3 mg/kg. In the data set with Male Sprague-Dawley rats [3] (setting [6]), the “<60 mmHg @ 10X CFA MEMD” value was “+ (resulted in a maximum pCO2 value of less than 60 mmHg within 2 hours of administration)”. For the same compound, the “<60 mmHg @ 100X CFA MEMD” value with Male Sprague-Dawley rats [3] (setting [8]) was “+ (resulted in a maximum pCO2 value of less than 60 mmHg within 2 hours of administration)”.
On μ-receptor, `COC1(c2cccc(C(N)=O)c2)C2CCCC1CN(C[C@H]1[C@@H]3COC[C@@H]31)C2.Cl` (some centres unmarked) [Compound 176] registered a Ki of less than 1 nM. The same compound registered an EC50 at human μ opioid receptor [1] of less than 10 nM. The minimal effective dose in the data set on Male Sprague-Dawley rats [2] (setting [5]) worked out at 0.1 mg/kg.
For `COc1ccc2c3c1O[C@H]1C(=O)CC[C@@]4(O)[C@@H](C2)N(C)CC[C@]314` [Oxycodone, reference compound], the minimal effective dose in the data set with Male Sprague-Dawley rats [2] (setting [7]) was determined as 3 mg/kg. The “<60 mmHg @ 10X CFA MEMD” value in the data set with Male Sprague-Dawley rats [3] (in vivo, sc) is listed as “− (key: −: resulted in a maximum pCO2 value of greater than 60 mmHg within 2 hours of administration; +: resulted in a maximum pCO2 value of less than 60 mmHg within 2 hours of administration)”.
On μ-receptor, `COC1(c2ccnc(C(N)=O)c2)C2CCCC1CN(Cc1cnc[nH]1)C2.Cl` [Compound 96, 4-((1R,5S,9r)-3-((1H-imidazol-5-yl)methyl)-9-methoxy-3-azabicyclo[3.3.1]nonan-9-yl)picolinamide hydrochloride] displayed a Ki of less than 1 nM. Also, on human μ opioid receptor [1], the EC50 fell in the range of 10 to 75 nM. The minimal effective dose with Male Sprague-Dawley rats [2] (setting [5]) amounted to 1 mg/kg.
On the same counts, the results for `COC1(c2cccc(C(N)=O)c2)C2CCCC1CN(CCc1cnn[nH]1)C2.Cl` [Compound 155, 3-((1R,5S,9r)-3-(2-(1H-1,2,3-triazol-4-yl)ethyl)-9-methoxy-3-azabicyclo[3.3.1]nonan-9-yl)benzamide hydrochloride] are less than 1 nM, less than 10 nM and 1 mg/kg.
On the same counts, the results for `COCCN1CC2CCCC(C1)C2(OC)c1cccc(C(N)=O)c1.Cl` [Compound 128, 3-((1R,5S,9r)-9-methoxy-3-(2-methoxyethyl)-3-azabicyclo[3.3.1]nonan-9-yl)benzamide hydrochloride] are less than 1 nM, 10 to 75 nM and 1 mg/kg.
On the same counts, the results for `COC1(c2ccnc(C(N)=O)c2)C2CCCC1CN(C1CCOCC1)C2.Cl` [Compound 56, 4-((1R,5S,9r)-9-methoxy-3-(tetrahydro-2H-pyran-4-yl)-3-azabicyclo[3.3.1]nonan-9-yl)picolinamide hydrochloride] are greater than 5 nM, greater than 75 nM and 3 mg/kg.
At μ-receptor, `COC1(c2cccc(C(N)=O)c2)C2CCCC1CN(CCN1C(=O)CCC1=O)C2.Cl` [Compound 65, 3-((1R,5S,9r)-3-(2-(2,5-dioxopyrrolidin-1-yl)ethyl)-9-methoxy-3-azabicyclo[3.3.1]nonan-9-yl)benzamide hydrochloride] returned a Ki of less than 1 nM. Moreover, the EC50 at human μ opioid receptor [1] was less than 10 nM. The minimal effective dose in the data set with Male Sprague-Dawley rats [2] (setting [5]) was determined as 0.1 mg/kg.
On the same counts, the results for `COC1(c2cccc(C(N)=O)c2)C2CCCC1CN(CCN1CCNC1=O)C2.Cl` [Compound 63, 3-((1R,5S,9r)-9-methoxy-3-(2-(2-oxoimidazolidin-1-yl)ethyl)-3-azabicyclo[3.3.1]nonan-9-yl)benzamide hydrochloride] are less than 1 nM, 10 to 75 nM and greater than 1 mg/kg.
Consider `CO[C@@]12CC[C@@]3(C[C@@H]1[C@](C)(O)C(C)(C)C)[C@H]1Cc4ccc(O)c5c4[C@@]3(CCN1CC1CC1)[C@H]2O5` [Buprenorphine, reference compound], for which the “MEMD SC CFA” value in the data set on Male Sprague-Dawley rats [2] (rat, in vivo) turned out to be 0.1 mg/kg.
`Oc1ccc2c3c1O[C@H]1[C@@H](O)CC[C@@]4(O)[C@@H](C2)N(CC2CCC2)CC[C@]314` [Nalbuphine, reference compound]: in the data set with Male Sprague-Dawley rats [2] (setting [7]), the minimal effective dose is greater than 10 mg/kg.
Turning to `COC1(c2cccc(C(N)=O)c2)C2CCCC1CN(CCC1CC1)C2.Cl` [Compound 138, 3-((1R,5S,9r)-3-(2-cyclopropylethyl)-9-methoxy-3-azabicyclo[3.3.1]nonan-9-yl)benzamide hydrochloride], on μ-receptor, the inhibition constant Ki was less than 1 nM. Further, the EC50 on human μ opioid receptor [1] is less than 10 nM. Besides, the minimal effective dose in the data set on Male Sprague-Dawley rats [2] (setting [5]) is 0.3 mg/kg.
With `COC1(c2cccc(C(N)=O)c2)C2CCCC1CN(C[C@@H]1CCOC1)C2.Cl` (single isomer, unassigned) [Compound 143], in the data set with Male Sprague-Dawley rats [2] (setting [5]), the minimal effective dose is 1 mg/kg.
